Where two headings read alike, the source gives them in different places.
How the values were obtained:
[1] = system: P-gp and BCRP; test: Caco-2 transcellular transport study, efflux ratio with and without P-gp and BCRP inhibitors; assay type: in vitro ADME; settings: human, Caco-2
Method: (§1) Cell membrane permeability is known to be constant regardless of the concentration of the substance when no transporter is involved. The control compounds, propranolol and mannitol, are not substrates for transporters P-gp and BCRP expressed in Caco-2 cells, and thus the values of the permeability coefficient are not considered to change depending on the concentrations used in the test. Thus, further, the following study was conducted to confirm that edaravone is not a substrate for transporters P-gp and BCRP as well.
(§2) That is, Caco-2 cells were seeded on a 96-well plate, cultured at 37° C. for 10 to 11 days in a CO2 incubator, and then a transcellular transport study was conducted. Then, a […] was calculated. The efflux ratio was calculated as the ratio of the mean values of Papp calculated from three measurements.

[2] = system: transporters P-gp and BCRP expressed in Caco-2 cells; test: as above; assay type: in vitro ADME; settings: Caco-2 cells
Method: as §1, §2

[3] = Clinical studies #7 and #8: edaravone oral dose vs AUC (4-parameter logistic model) compared with 60-mg intravenous administration; assay type: in vivo; settings: human, plasma; approved 60-mg edaravone intravenous administration formulation (60 mg/60 min)
Method: Specifically, clinical studies #7 and #8 described below were conducted in healthy adult male subjects for each subject group. In clinical studies #7 and #8, one dose each of edaravone oral formulations (edaravone suspensions) of formulas #7 and #8 shown in Table 11 below were used respectively and administered orally once during the study period.
Any of the edaravone oral formulations (formula #7) with an edaravone content of 30 mg, 60 mg, 120 mg, 200 mg, or 300 mg was administered orally to subjects in fasted conditions after a lapse of 10 hours or longer from consumption of a meal. The edaravone oral formulations with each content were each administered orally to 6 subjects. Blood samples were each collected before the administration, and 15 minutes, 30 minutes, 1 hour, 1.5 hours, 2 hours, 4 hours, 6 hours, 8 hours, 12 hours, 24 hours, 36 hours, and 48 hours after the administration, the concentrations of unchanged edaravone were measured, and the AUCs were calculated.
The edaravone oral formulations (formula #8) with an edaravone content of 100 mg was administered orally to 9 subjects in fasted conditions after a lapse of 10 hours or longer from consumption of a meal. […]

[4] = Clinical study #11: PK of edaravone oral formulation (formula #3) via nasopharyngeal gastric tube vs oral in healthy adults; assay type: in vivo, human; settings: for AUC(0-inf) / Cmax / AUC / half-life / Tmax: human, plasma; for AUC(0-inf) / Cmax: 105 mg; for Tmax: read-out: tmax (median)
Method: Pharmacokinetics of edaravone in administration of the edaravone oral formulation via a PEG tube was evaluated in 36 healthy adults. Specifically, performing gastrostomy in healthy adults is difficult, thus a nasopharyngeal gastric tube (NG tube), which allows the administration into the stomach via a tube in the same manner, was used as a model of administration via a percutaneous endoscopic gastrostomy tube (PEG tube), and a clinical study #11 described below was conducted.
The edaravone oral formulation (#3) was administered via a nasopharyngeal gastric tube (NG tube) to the subject group in fasted conditions after a lapse of 10 hours or longer from consumption of a meal. In the administration via an NG tube, first, 100 mL of lukewarm water was injected through an NG tube 1 hour before the administration of the edaravone oral formulation, and 10 mL of lukewarm water was injected through an NG tube immediately before the administration. Then, the edaravone oral formulation was administered to the NG tube, and further 30 mL of water was injected through the NG tube to wash in the edaravone oral formulation. Blood samples were each collected before the administration, and 5 minutes, 15 minutes, 30 minutes, 45 minutes, 1 hour, 1.5 hours, 2 hours, 4 hours, 6 hours, 8 hours, 10 hours, 12 hours, 24 hours, 36 hours, and 48 hours after the administration, and the concentrations of unchanged edaravone in plasma were measured. As a reference example, the same edaravone oral formulation was administered orally to the same subjects, blood samples were collected, and the concentrations of unchanged edaravone in plasma were measured in the same manner. For the oral administration, the edaravone oral formulation was administered orally after a lapse of 10 hours or longer from the previous meal consumption. None of the subjects consumed a next meal until the blood sample collection 4 hours after the administration was completed. In addition, results of an analysis of variance conducted on the AUC and Cmax in consideration of the meal condition are shown in Table 14 below.

[5] = Clinical Trial #12: PK after oral administration of edaravone solution and suspension; settings: male, human, in vivo, fasting (N = 6), mean; for AUC(0-t): read-out: AUC0-24 h
Method: Whether or not there is an influence on pharmacokinetics by administering in forms of a solution and a suspension when administering edaravone orally was evaluated. Specifically, Clinical Trial #12 described below was conducted on healthy adult Japanese male subjects. Administration during the trial period was a single oral administration.
Either an edaravone solution containing 60 mg of edaravone or an edaravone suspension containing 120 mg of edaravone was orally administered to subjects in a fasting state of 10 hours or longer since the last meal intake. The 60 mg or 120 mg of edaravone was dissolved or suspended in 50 mL or 10 mL of 0.1% polyvinyl alcohol solution, respectively. The edaravone solution or suspension of the respective content was administered to each of six subjects.

[6] = Caco-2 cell monolayer membrane permeability test; settings: human, Caco-2, pH 7.4
Method: (§3) Caco-2 cells were seeded on a 24-well plate, cultured at 37° C. for 21 to 23 days in a CO2 incubator, and then a Caco-2 cell monolayer membrane permeability test was conducted. After checking the membrane resistance value of the cell layer after the culture, the culture medium in the plate was replaced with HBSS (pH 7.4). […] For the control compounds, [^3H]propranolol as a high membrane permeability control and [^14C]mannitol as a low membrane permeability control were used.

[7] = system: Caco-2 cells; test: Caco-2 cell monolayer membrane permeability test
Method: as §3

[8] = Nasopharyngeal gastric tube / Oral, least squares mean ratio
[9] = other: nasopharyngeal gastric tube (NG tube), formula #3 (105 mg), Nasopharyngeal gastric tube, fasted (N = 36), mean
[10] = formula #3 (105 mg), Oral, fasted (N = 36), mean

With `CC1=NN(c2ccccc2)C(=O)C1` [Edaravone, 3-methyl-1-phenyl-2-pyrazolin-5-one] the efflux ratio at 10 μmol/L ([1]; 10 μmol/L, no inhibitor) was 0.9, the efflux ratio ([1]; in presence or absence of inhibitors) was at most 2 and the “substrate for P-gp and BCRP” value [2] was “not a substrate for P-gp and BCRP”. For the same compound, the AUC [3] was 1740 ng·h/mL, the “AUC0-∞ Ratio” value [4, 8] was 0.981 and the “Cmax Ratio” value [4, 8] was 1.052. For the same compound, the AUC(0-inf) ([4]; other: nasopharyngeal gastric tube (NG tube), Nasopharyngeal gastric tube, analysis of variance, read-out: AUC0-∞ Least-square mean) was 2500 ng·h/mL, the Cmax ([4]; other: nasopharyngeal gastric tube (NG tube), Nasopharyngeal gastric tube, analysis of variance, read-out: Cmax Least-square mean) was 2430 ng/mL and the AUC(0-inf) ([4]; other: nasopharyngeal gastric tube (NG tube), formula #3 (105 mg), Nasopharyngeal gastric tube, fasted (N = 36), mean, read-out: AUC0-∞) was 2620 ng·h/mL. It also gave a Cmax ([4]; other: nasopharyngeal gastric tube (NG tube), formula #3 (105 mg), Nasopharyngeal gastric tube, fasted (N = 36), mean, read-out: Cmax) of 2780 ng/mL, an AUC [4, 9] of 2590 ng·h/mL and a half-life [4, 9] of 13.5 h. The Tmax ([4]; other: nasopharyngeal gastric tube (NG tube), formula #3 (105 mg), Nasopharyngeal gastric tube, fasted (N = 36)) was 0.25 h, the AUC(0-inf) ([4]; po, Oral, analysis of variance, read-out: AUC0-∞ Least-square mean) was 2550 ng·h/mL and the Cmax ([4]; po, Oral, analysis of variance, read-out: Cmax Least-square mean) was 2310 ng/mL. The AUC(0-inf) ([4]; po, formula #3 (105 mg), Oral, fasted (N = 36), mean, read-out: AUC0-∞) was 2660 ng·h/mL, the Cmax ([4]; po, formula #3 (105 mg), Oral, fasted (N = 36), mean, read-out: Cmax) was 2470 ng/mL and the AUC [4, 10] was 2610 ng·h/mL. For the same compound, the half-life [4, 10] was 21.5 h, the Tmax ([4]; formula #3 (105 mg), Oral, fasted (N = 36)) was 0.5 h and the Cmax ([5]; Cohort S1, 60 mg, Solution) was 755 ng/mL. The AUC(0-t) ([5]; Cohort S1, 60 mg, Solution) was 816 ng·h/mL, the Cmax ([5]; Cohort S2, 120 mg, Suspension) was 1740 ng/mL and the AUC(0-t) ([5]; Cohort S2, 120 mg, Suspension) was 2240 ng·h/mL. The Papp A→B at 2 h, 100 μmol/L [6] was 32 ± 1.7 ×10⁻⁶ cm/s, the “membrane permeability relative to high permeability control” value ([7]; Caco-2, vs propranolol) was “equal to or higher than that of propranolol” and the “permeability classification under Biopharmaceutics Classification System” value ([7]; based on Caco-2 membrane permeability test) was “high permeability compound”.
